Experimental data from US20170066717A1, “NEW PHENYLAZETIDINECARBOXYLATE OR -CARBOXAMIDE COMPOUNDS” (INVENTIVA, priority 2014, published 2017).

Key:
NURR-1/RXRα = target: T1, NURR-1/RXRα (Homo sapiens, UniProt P19793); assay: Transactivation test, NURR-1-Gal4/RXRα, luciferase reporter in Cos-7 cells; format: cell-based; settings: for Emax: COS-7, induction level relative to reference XCT0135908 at 2×10^−5 M (=100%), read-out: hNurr1_RXRaFL Emax (%); for EC50: Cos-7 cells, NURR-1-Gal4/RXRα, luciferase reporter, read-out: hNurr1_RXRaFL EC50
T1 construct: expressed in transfected cells; host or cells: Cos-7 cells

NURR-1/RXRγ = target: T2, NURR-1/RXRγ (Homo sapiens, UniProt P48443); assay: Transactivation test, NURR-1-Gal4/RXRγ, luciferase reporter in Cos-7 cells; format: cell-based; settings: for Emax: COS-7, induction level relative to reference XCT0135908 at 2×10^−5 M (=100%), read-out: hNurr1_RXRgFL Emax (%); for EC50: Cos-7 cells, NURR-1-Gal4/RXRγ, luciferase reporter, read-out: hNurr1_RXRgFL EC50
T2 construct: expressed in transfected cells; host or cells: Cos-7 cells
T2 sequence (P48443 whole entry, the tested form may be a part): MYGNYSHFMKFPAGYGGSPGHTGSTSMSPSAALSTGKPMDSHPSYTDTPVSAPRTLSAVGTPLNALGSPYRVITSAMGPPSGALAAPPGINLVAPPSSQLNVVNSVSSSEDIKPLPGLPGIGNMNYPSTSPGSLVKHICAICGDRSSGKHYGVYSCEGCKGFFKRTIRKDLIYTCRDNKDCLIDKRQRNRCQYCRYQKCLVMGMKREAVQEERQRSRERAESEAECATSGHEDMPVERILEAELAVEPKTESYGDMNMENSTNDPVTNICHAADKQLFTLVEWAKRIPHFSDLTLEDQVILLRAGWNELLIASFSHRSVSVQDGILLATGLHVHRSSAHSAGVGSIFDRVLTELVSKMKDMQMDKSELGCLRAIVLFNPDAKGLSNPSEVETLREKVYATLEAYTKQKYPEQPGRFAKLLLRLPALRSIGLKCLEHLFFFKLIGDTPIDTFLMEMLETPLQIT
T2 sequence (P43354 whole entry partner, the tested form may be a part): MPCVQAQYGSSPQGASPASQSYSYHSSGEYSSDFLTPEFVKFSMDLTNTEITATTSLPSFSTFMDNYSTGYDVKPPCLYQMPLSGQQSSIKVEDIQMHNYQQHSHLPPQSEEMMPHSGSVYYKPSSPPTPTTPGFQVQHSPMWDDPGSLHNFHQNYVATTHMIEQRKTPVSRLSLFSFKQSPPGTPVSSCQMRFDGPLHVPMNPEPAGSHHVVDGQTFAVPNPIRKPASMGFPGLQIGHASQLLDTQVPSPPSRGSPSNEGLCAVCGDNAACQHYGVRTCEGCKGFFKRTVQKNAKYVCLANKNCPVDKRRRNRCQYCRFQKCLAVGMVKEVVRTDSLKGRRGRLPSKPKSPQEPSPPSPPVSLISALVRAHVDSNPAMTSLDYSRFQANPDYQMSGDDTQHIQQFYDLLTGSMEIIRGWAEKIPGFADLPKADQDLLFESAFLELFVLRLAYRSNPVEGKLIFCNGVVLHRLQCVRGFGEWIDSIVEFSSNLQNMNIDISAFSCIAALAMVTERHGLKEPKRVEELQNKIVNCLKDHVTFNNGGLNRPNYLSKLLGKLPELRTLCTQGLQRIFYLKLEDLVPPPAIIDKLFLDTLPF
T2 sequence (P04386 1-147 partner limits assumed): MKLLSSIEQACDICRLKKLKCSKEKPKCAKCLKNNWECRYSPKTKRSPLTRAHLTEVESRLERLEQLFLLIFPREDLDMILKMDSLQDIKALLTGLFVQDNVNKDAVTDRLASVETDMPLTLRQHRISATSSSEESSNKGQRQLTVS

T1 sequence (P19793 whole entry, the tested form may be a part): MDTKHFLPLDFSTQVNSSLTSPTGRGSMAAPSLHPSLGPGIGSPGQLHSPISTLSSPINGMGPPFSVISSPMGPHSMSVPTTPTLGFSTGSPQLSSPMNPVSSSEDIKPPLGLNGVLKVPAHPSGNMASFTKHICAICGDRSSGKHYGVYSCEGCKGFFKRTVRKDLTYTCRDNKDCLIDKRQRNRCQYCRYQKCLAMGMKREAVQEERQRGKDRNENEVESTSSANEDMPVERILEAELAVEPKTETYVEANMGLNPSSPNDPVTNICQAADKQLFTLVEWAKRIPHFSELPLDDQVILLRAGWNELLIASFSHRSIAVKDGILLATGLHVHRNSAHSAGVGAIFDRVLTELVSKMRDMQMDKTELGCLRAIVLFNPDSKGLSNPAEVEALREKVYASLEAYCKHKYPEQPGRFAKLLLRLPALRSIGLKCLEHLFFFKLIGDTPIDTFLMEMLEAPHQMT
T1 sequence (P43354 whole entry partner, the tested form may be a part): as the sequence (P43354 whole entry partner, the tested form may be a part) above
T1 sequence (P04386 1-147 partner limits assumed): as the sequence (P04386 1-147 partner limits assumed) above

Row | Compound | Emax (NURR-1/RXRα) [%] | EC50 (NURR-1/RXRα) [nM] | Emax (NURR-1/RXRγ) [%] | EC50 (NURR-1/RXRγ) [nM]
1 | O=C(O)C1CN(c2cccc(N3CC4(CCOC4)c4cc(C(F)(F)F)ccc43)c2)C1 (stereo not shown) [Example 140, 1-[3-[5-(trifluoromethyl)spiro[indoline-3,3′-tetrahydrofuran]-1-yl]phenyl]azetidine-3-carboxylic acid] | 108 | 40 | 97 | 30
2 | O=C(O)C1CN(c2cccc(N3c4ccc(C(F)(F)F)cc4C4CCCCC43)c2)C1 (stereo not shown) [Example 144, 1-[3-[6-(trifluoromethyl)-1,2,3,4,4a,9a-hexahydrocarbazol-9-yl]phenyl]azetidine-3-carboxylic acid] | 97 | 28 | 105 | 24
3 | O=C(O)C1CN(c2cccc(-n3c(=O)n(CC4CCCC4)c4cc(C(F)(F)F)ccc43)c2)C1 [Example 149, 1-[3-[3-(cyclopetnylmethyl)-2-oxo-5-(trifluoromethyl)benzimidazol-1-yl]phenyl]azetidine-3-carboxylic acid] | 99 | 8 | 97 | 19
4 | Cc1cn(-c2cccc(N3CC(C(=O)NS(=O)(=O)C(F)(F)F)C3)c2)c2ccc(C(F)(F)F)cc12 [Example 151, 1-[3-[3-methyl-5-(trifluoromethyl)indol-1-yl]phenyl]-N-(trifluoromethylsulfonyl)azetidine-3-carboxamide] | 95 | 4 | 73 | 7
5 | Cc1cn(-c2cccc(N3CC(C(=O)NC(CO)CO)C3)c2)c2ccc(C(F)(F)F)cc12 [Example 161, N-[2-hydroxy-1-(hydroxymethyl)ethyl]-1-[3-[3-methyl-5-(trifluoromethyl)indol-1yl]phenyl]azetidine-3-carboxamide] | 113 | 9 | 103 | 23
6 | Cc1cn(-c2cccc(N3CC(C(=O)NC4CCN(C)CC4)C3)c2)c2ccc(C(F)(F)F)cc12 [Example 162, N-(1-methyl-4-piperidyl)-1-[3-[3-methyl-5-(trifluromethyl)indol-1-yl]phenyl]azetidine-3-carboxamide] | 100 | 823 | 93 | 1380
7 | Cc1cn(-c2cccc(N3CC(C(=O)NC4COC4)C3)c2)c2ccc(C(F)(F)F)cc12 [Example 163, 1-[3-[3-methyl-5-(trifluoromethyl)indol-1-yl]phenyl]-N-(oxetan-3-yl)azetidine-3-carboxamide] | 123 | 7 | 125 | 9
8 | Cc1cn(-c2cccc(N3CC(C(=O)NCCCN4CCNCC4)C3)c2)c2ccc(C(F)(F)F)cc12 [Example 164, 1-[3-[3-methyl-5-(trifluoromethyl)indol-1-yl]phenyl]-N-(3-piperazia-1-ylpropyl)azetidine-3-carboxamide] | 85 | 723 | 88 | 1650
9 | Cc1cn(-c2cccc(N3CC(C(=O)NC4CCCC4)C3)c2)c2ccc(C(F)(F)F)cc12 [Example 166, N-cyclopetnyl-1-[3-[3-methyl-5-(trifluoromethyl)indol-1-yl]phenyl]azetidine-3-carboxamide] | 104 | 25 | 113 | 41
10 | Cc1cn(-c2cccc(N3CC(C(=O)NCCN4CCOCC4)C3)c2)c2ccc(C(F)(F)F)cc12 [Example 170, 1-[3-[3-methyl-5-(trifluoromethyl)indol-1-yl]phenyl]-N-(2-morpholinoethyl)azetidine-3-carboxamide] | 100 | 27 | 90 | 32
11 | Cc1cn(-c2cccc(N3CC(C(=O)NCCCCN(C)C)C3)c2)c2ccc(C(F)(F)F)cc12 [Example 175, N-[4-(dimethylamino)butyl]-1-[3-[3-methyl-5-(trifluoromethyl)indol-1yl]phenyl]-azatidine-3-carboxamide] | 77 | 647 | 84 | 1260
12 | Cc1cn(-c2cccc(N3CC(C(=O)NCCN4CCNC4=O)C3)c2)c2ccc(C(F)(F)F)cc12 [Example 176, 1-[3-[3-methyl-5-(trifluoromethyl)indol-1-yl]-phenyl]N-[2-(2-oximidazolidin-1-yl)ethyl]azetidine-3-carboxamide] | 113 | 12 | 130 | 28
13 | Cc1cn(-c2cccc(N3CC(C(=O)NC4CCC4)C3)c2)c2ccc(C(F)(F)F)cc12 [Example 179] | 119 | 8 | 144 | 12
14 | Cc1cn(-c2cccc(N3CC(C(=O)NC4CCOCC4)C3)c2)c2ccc(C(F)(F)F)cc12 [Example 180, 1-[3-[3-methyl-5-(trifluorometnyl)indol-1-yl]phenyl]-N-tetrahydropyran-4-yl-azetidine-3-carboxamide] | 103 | 54 | 110 | 86
15 | Cc1cn(-c2cccc(N3CC(C(=O)NCCN4CCN(C)CC4)C3)c2)c2ccc(C(F)(F)F)cc12 [Example 181, N-[2-(4-methylipiperazin-1-yl)ethyl]-1-[3-[3-methyl-5-(trifluoromethyl)indol-1-yl]phenyl]azetidine-3-carboxamide] | 103 | 168 | 96 | 293

Continued, values first:

Row | Emax (NURR-1/RXRα) [%] | EC50 (NURR-1/RXRα) [nM] | Emax (NURR-1/RXRγ) [%] | EC50 (NURR-1/RXRγ) [nM] | Compound
16 | 116 | 10 | 116 | 10 | Cc1cn(-c2cccc(N3CC(C(=O)NC(C)C)C3)c2)c2ccc(C(F)(F)F)cc12 [Example 152, N-isopropyl-1-[3-[3-methyl-5-(trifluoromethyl)indol-1-yl]phenyl]azetidine-3-carboxamide]
17 | 87 | 181 | 111 | 455 | Cc1cn(-c2cccc(N3CC(C(=O)NCCN(C)C)C3)c2)c2ccc(C(F)(F)F)cc12 [Example 153, N-(2-dimethylaminoethyl)-1-[3-[3-methyl-5-(trifluoromethyl)indol-1-yl]phenyl]azetidine-3-carboxamide]
18 | 105 | 3 | 117 | 4 | Cc1cn(-c2cccc(N3CC(C(=O)NCCCCO)C3)c2)c2ccc(C(F)(F)F)cc12 [Example 156, N-(4-hydroxybutyl)-1-[3-[3-methyl-5-(trifluorometyl)indol-1-yl]phenyl]azetidine-3-carboxamide]
19 | 120 | 3 | 114 | 6 | Cc1cn(-c2cccc(N3CC(C(=O)NCC(O)CO)C3)c2)c2ccc(C(F)(F)F)cc12 (stereo not shown) [Example 157, N-(2,3-dihydroxypropyl)-1-[3-[3-methyl-5-(trifluoromethyl)indol-1-yl]phenyl]azetidine-3-carboxamide]
20 | 103 | 15 | 108 | 20 | Cc1cn(-c2cccc(N3CC(C(=O)N(C)C)C3)c2)c2ccc(C(F)(F)F)cc12 [Example 165, N,N-dimethyl-1-[3-[3-methyl-5-(tirfluormethyl)indol-1-yl]phenyl]azetidine-3-carboxamide]
21 | 109 | 25 | 131 | 41 | Cc1cn(-c2cccc(N3CC(C(=O)NCC(C)C)C3)c2)c2ccc(C(F)(F)F)cc12 [Example 167]
22 | 102 | < 1 | 106 | < 1 | Cc1cn(-c2cccc(N3CC(C(=O)NCCO)C3)c2)c2ccc(C(F)(F)F)cc12 [Example 168]
23 | 109 | 13 | 149 | 26 | CCCCNC(=O)C1CN(c2cccc(-n3cc(C)c4cc(C(F)(F)F)ccc43)c2)C1 [Example 169, N-butyl-1-[3-[3-methyl-5-(trifluoromethyl)indol-1-yl]phenyl]azetidine-3-carboxamide]
24 | 111 | 73 | 114 | 335 | Cc1cn(-c2cccc(N3CC(C(=O)NC(C)(C)C)C3)c2)c2ccc(C(F)(F)F)cc12 [Example 171, N-tert-butyl-1-[3-[3-methyl-5-(tirfluoromethyl)indol-1-yl]phenyl]azetidine-3-carboxamide]
25 | 104 | < 1 | 114 | 5 | COCCCNC(=O)C1CN(c2cccc(-n3cc(C)c4cc(C(F)(F)F)ccc43)c2)C1 [Example 172, N-(3-methoxvpypropyl)-1-[3-[3-methyl-5-(trifluoromethyl)indol-1-yl]phenyl]azetidine-3-carboxamide]
26 | 91 | 341 | 95 | 620 | Cc1cn(-c2cccc(N3CC(C(=O)NCCCN(C)C)C3)c2)c2ccc(C(F)(F)F)cc12 [Example 174, N-[3-(dimethylamino)propyl]-1-[3-[3-methyl-5-(trifluoromethyl)indol-1-yl]phenyl]-azetidine-3-carboxamide]
27 | 104 | 7 | 109 | 10 | Cc1cn(-c2cccc(N3CC(C(=O)NCC4CC4)C3)c2)c2ccc(C(F)(F)F)cc12 [Example 177, N-(cyclopropylmethyl)-1-[3-[3-methyl-5-(trifluoromethyl)indol-1-yl]phenyl]azetidine-3-carboxamide]
28 | 115 | 14 | 133 | 146 | Cc1cn(-c2cccc(N3CC(C(=O)NCC(F)(F)F)C3)c2)c2ccc(C(F)(F)F)cc12 [Example 178, 1-[3-[3-methyl-5-(trifluoromethyl)indol-1-yl]phenyl]-N-(2,2,2-trifluoromethyl)azetidine-3-carboxamide]
